Laboratory results reported in PubChem BioAssay (NCI).
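Grown in 96-well plates, cells were treated for 48 hours with each compound at five concentrations. Insufficient inhibition: endpoint recorded as highest concentration tested. The concentration for full growth arrest is given as TGI.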

Tests used:
Experiment in all cases: inhibition of tumour cell growth, NCI panel, 48 h
786-0 renal = system: 786-0 renal
A498 renal = system: A498 renal
A549 NSCLC = system: A549 NSCLC
ACHN renal = system: ACHN renal
CAKI-1 renal = system: CAKI-1 renal
CCRF-CEM leukemia = system: CCRF-CEM leukemia
COLO 205 colon = system: COLO 205 colon
DU-145 prostate = system: DU-145 prostate
EKVX NSCLC = system: EKVX NSCLC
HCC-2998 colon = system: HCC-2998 colon
HCT-116 colon = system: HCT-116 colon
HCT-15 colon = system: HCT-15 colon
HL-60(TB) leukemia = system: HL-60(TB) leukemia
HOP-62 NSCLC = system: HOP-62 NSCLC
HOP-92 NSCLC = system: HOP-92 NSCLC
HS 578T breast = system: HS 578T breast
HT29 colon = system: HT29 colon
IGROV1 ovarian = system: IGROV1 ovarian
K-562 leukemia = system: K-562 leukemia
KM12 colon = system: KM12 colon
LOX IMVI melanoma = system: LOX IMVI melanoma
M14 melanoma = system: M14 melanoma
MCF7 breast = system: MCF7 breast
MDA-MB-231 breast = system: MDA-MB-231 breast
MDA-MB-435 = system: MDA-MB-435
MDA-N = system: MDA-N
MOLT-4 leukemia = system: MOLT-4 leukemia
NCI-H226 lung = system: NCI-H226 lung
NCI-H23 lung = system: NCI-H23 lung
NCI-H460 lung = system: NCI-H460 lung
NCI-H522 lung = system: NCI-H522 lung
NCI/ADR-RES ovarian = system: NCI/ADR-RES ovarian
OVCAR-3 ovarian = system: OVCAR-3 ovarian
OVCAR-4 ovarian = system: OVCAR-4 ovarian
OVCAR-5 ovarian = system: OVCAR-5 ovarian
OVCAR-8 ovarian = system: OVCAR-8 ovarian
PC-3 prostate = system: PC-3 prostate
RPMI-8226 leukemia = system: RPMI-8226 leukemia
SF-268 CNS = system: SF-268 CNS
SF-295 CNS = system: SF-295 CNS
SF-539 CNS = system: SF-539 CNS
SK-MEL-2 melanoma = system: SK-MEL-2 melanoma
SK-MEL-28 melanoma = system: SK-MEL-28 melanoma
SK-MEL-5 melanoma = system: SK-MEL-5 melanoma
SK-OV-3 ovarian = system: SK-OV-3 ovarian
SN12C renal = system: SN12C renal
SNB-19 CNS = system: SNB-19 CNS
SNB-75 CNS = system: SNB-75 CNS
SR leukemia = system: SR leukemia
SW-620 colon = system: SW-620 colon
T-47D breast = system: T-47D breast
TK-10 renal = system: TK-10 renal
U251 CNS = system: U251 CNS
UACC-257 melanoma = system: UACC-257 melanoma
UACC-62 melanoma = system: UACC-62 melanoma
UO-31 renal = system: UO-31 renal

Measured: TGI

COc1cc(OC2OC(CO)C(O)C(O)C2O)c2c(c1)O[C@@H]1[C@H](O)Oc3cc(OC)c(OC)cc3[C@]1(O)C2=O (stereo partly specified)
> 25 µM: all assays above
